# Source: patent US20250082654A1, “AZD3355 (LESOGABERAN) FOR TREATMENT AND PREVENTION OF NONALCOHOLIC STEATOHEPATITIS (NASH), LIVER FIBROSIS, AND OTHER LIVER CONDITIONS” (Icahn School of Medicine at Mount Sinai, priority 2018, published 2025)
# Legend:
# NASH model mice = assay: NASH mouse model, histopathological scoring of liver sections; type: in vivo; conditions: for Hepatocyte ballooning ± SE: score 0-2; for Portal inflammation ± SE / Lobular Inflammation ± SE / Steatosis ± SE: score 0-3; for Fibrosis Stage ± SE: score 0-4; for NAFLD activity score (NAS) ± SE: score 0-8
# Protocol: Four separate groups of mice were given either 0.5% methylcellulose (as Vehicle) or AZD3355 at 10 mg/kg (low dose) body weight of mice or 30 mg/kg (high dose) body weight of mice by twice daily (BID (5 days/week)) and OCA at 30 mg/kg body weight of mice by daily (QD (5 days/week)) through oral route for up to next 12 weeks (week 13 to week 24). Them last group of mice were not given any drug or vehicle treatment, as No Tx—24 weeks and maintained in parallel with treatment/vehicle groups. Usually all doses were given at early morning and the second daily dose of AZD3355 at evening (10 hours of intervals). All animals were closely monitored the health conditions and behavior.
# A piece of tissue from large liver lobe was fixed in 10% Formalin Buffered (Astral Diagnostics Incorporated NJ) embedded in paraffin and microtome sectioning were performed. Slides containing tissue sections were baked at 60° C. for 1 hour and re-hydrated through xylene followed by graded ethanol (100%, 95%, 85% and 70%) into distilled water and processed in either Picrosirius red/Fast green or hematoxylin and eosin staining.
# A total of 2 sections/animal were stained with H&E staining performed by standard protocol.
# Steatosis, hepatocyte ballooning, lobular inflammation, portal inflammation and fibrosis of picroserious red/fast green and H&E stained liver section were scored according to the NASH Clinical Research Network (NASH CRN) scoring system in a blinded fashion by an expert hepato-pathologist in Icahn School of Medicine at Mount Sinai. NAFLD activity score (NAS) was calculated according to Brunt criteria and range from 0-8. NAS was calculated by the sum of scores of steatosis (0-3), hepatocyte ballooning (0-2) and lobular inflammation (0-3). NAS score of >5.0 strongly correlated with “definite-NASH” whereas <3 correlated with “not-NASH”. Fibrosis (0-4) or portal inflammation (0-3) scores were assessed separately and not included in NAS.
# human liver slices = assay: Liver slice assay, histopathology and H&E staining; type: cell-based; conditions: 24 hours
# Protocol: Ten human liver pieces were collected from the Mount Sinai biorepository. The samples were prepared by coring the liver with 8 mm cylindrical coring tools. The liver cores were kept in ice cold WE medium, with GlutaMAX supplemental. A liver core was then mounted on a specimen plate with cyanoacrylate adhesive. Liver slices (approximately 200 μm in thickness) were placed in ice cold Krebs-Henesleit buffer in the presence of carbogen gas. There was then a 1 hour pre-incubation in WE GlutaMAX media with gentamicin in 95% O2 and 5% CO2 at 37° C. in a humidified rocker chamber to restore ATP levels.
# The liver slices were then cultured in WE GlutaMAX media with gentamicin in 95% O2 and 5% CO2 at 37° C. in a humidified rocker chamber with slow 70 rpm rocking in the presence of AZD3355 in the amounts of 250 nM, 500 nM, 1000 nM, or 2000 nM, or sorafenib at 1000 nM., or control vehicle (saline water).
# After 24 hours, the tissue slices were harvested for either RNA isolation and quantitative PCR for measurements of Col1α1, TNFα, and IL-6 expression, or for histopathology and hematoxylin and eosin (H&E) staining as described in Example 3.
# phHSCs [1] = assay: Cell cytotoxicity assay (MTS); type: cell-based, human; conditions: 30 nM or 100 nM, 48 or 72 hours
# Protocol: (§1) At the beginning of each experiment, stellate cells (LX-2 cells or phHSCs) were serum-starved overnight in DMEM supplied with 0.1% BSA (without antibiotic) to synchronize metabolic activities of the cells. The cells were then exposed to different working concentration of either AZD3355 or sorafenib for 24, 48 and 72 hours.
# (§2) 5,000 LX-2 cells or 10,000 phHSCs were plated per well in 96 well plates. Cells were serum starved overnight in DMEM supplemented with 0.1% BSA (without antibiotic). Cells were then incubated with different concentrations of AZD3355 for indicated durations and MTS assays were accomplished using CellTiter 96 AQueous One Solution Cell Proliferation Assay kit (Promega, WI) according to manufacturer's protocol.
# LX-2 cells [2] = assay: Cell cytotoxicity assay (MTS); type: cell-based, human; conditions: 0-300 nM, 24, 48 or 72 hours
# Protocol: as §1, §2
# phHSCs [3] = assay: Cell apoptosis assay (caspase-3/7 activity); type: cell-based, human; conditions: any dosage, 72 hours
# Protocol: as §1
# (§3) 5,000 LX-2 cells or 10,000 phHSCs were plated per well in 96-well clear bottom black plates. After overnight serum starvation in DMEM supplemented with 0.1% BSA (without antibiotic) the cells were exposed to AZD3355 at indicated concentration. For positive apoptotic control the cells were treated with 3% DMSO. After 72 hours of drug exposure the fluorescence signal of Caspase-3 and -7 activities were measured in Synergy HT (BioTek Instrument Inc., VT) spectrofluorometer by using Apo-ONE Homogeneous Caspase-3/7 Assay kit (Promega, WI) according to manufacturer's protocol.
# LX-2 cells [4] = assay: Cell apoptosis assay (caspase-3/7 activity); type: cell-based, human; conditions: any dosage, 72 hours
# Protocol: as §1, §3
smiles,measurement,setting,value
"NC[C@@H](F)C[PH](=O)O [AZD3355, [(2R)-3-amino-2-fluoropropyl] phosphinic acid]",Hepatocyte ballooning ± SE,"NASH model mice; ♀ Mice, 10 mg/kg, vehicle 1.2 ± 0.1",1.3 ± 0.1
same,Portal inflammation ± SE,"NASH model mice; ♀ Mice, 10 mg/kg, vehicle 1.6 ± 0.1",1.6 ± 0.1
same,Lobular Inflammation ± SE,"NASH model mice; ♀ Mice, 10 mg/kg, vehicle 2.3 ± 0.1",2.5 ± 0.1
same,Steatosis ± SE,"NASH model mice; ♀ Mice, 10 mg/kg, vehicle 2.5 ± 0.1",2.6 ± 0.1
same,Fibrosis Stage ± SE,"NASH model mice; ♀ Mice, 10 mg/kg, vehicle 3.0 ± 0.1",3.1 ± 0.1
same,NAFLD activity score (NAS) ± SE,"NASH model mice; ♀ Mice, 10 mg/kg, vehicle 6.1 ± 0.4",6.4 ± 0.4
same,Steatohepatitis Grade ± SE,"NASH model mice; ♀ Mice, 10 mg/kg, vehicle 1.8 ± 0.2",2.1 ± 0.2
same,Hepatocyte ballooning ± SE,"NASH model mice; ♀ Mice, 30 mg/kg twice daily, vehicle 1.2 ± 0.1",1.3 ± 0.1
same,Portal inflammation ± SE,"NASH model mice; ♀ Mice, 30 mg/kg twice daily, vehicle 1.6 ± 0.1",2.0 ± 0.0
same,Lobular Inflammation ± SE,"NASH model mice; ♀ Mice, 30 mg/kg twice daily, vehicle 2.3 ± 0.1",2.7 ± 0.1
same,Steatosis ± SE,"NASH model mice; ♀ Mice, 30 mg/kg twice daily, vehicle 2.5 ± 0.1",2.3 ± 0.1
same,Fibrosis Stage ± SE,"NASH model mice; ♀ Mice, 30 mg/kg twice daily, vehicle 3.0 ± 0.1",3.1 ± 0.1
same,NAFLD activity score (NAS) ± SE,"NASH model mice; ♀ Mice, 30 mg/kg twice daily, vehicle 6.1 ± 0.4",6.4 ± 0.3
same,Steatohepatitis Grade ± SE,"NASH model mice; ♀ Mice, 30 mg/kg twice daily, vehicle 1.8 ± 0.2",2.2 ± 0.2
same,Hepatocyte ballooning ± SE,"NASH model mice; ♂ Mice, 10 mg/kg, vehicle 1.7 ± 0.1",1.7 ± 0.1
same,Portal inflammation ± SE,"NASH model mice; ♂ Mice, 10 mg/kg, vehicle 2.0 ± 0.1",1.9 ± 0.0
same,Steatosis ± SE,"NASH model mice; ♂ Mice, 10 mg/kg, vehicle 2.7 ± 0.1",2.7 ± 0.1
same,Lobular Inflammation ± SE,"NASH model mice; ♂ Mice, 10 mg/kg, vehicle 2.8 ± 0.1",2.8 ± 0.1
same,Fibrosis Stage ± SE,"NASH model mice; ♂ Mice, 10 mg/kg, vehicle 3.3 ± 0.1",3.2 ± 0.1
same,NAFLD activity score (NAS) ± SE,"NASH model mice; ♂ Mice, 10 mg/kg, vehicle 7.2 ± 0.3",7.2 ± 0.3
same,Steatohepatitis Grade ± SE,"NASH model mice; ♂ Mice, 10 mg/kg, vehicle 2.6 ± 0.2",2.7 ± 0.1
same,Hepatocyte ballooning ± SE,"NASH model mice; ♂ Mice, 30 mg/kg twice daily, vehicle 1.7 ± 0.1",1.8 ± 0.1
same,Portal inflammation ± SE,"NASH model mice; ♂ Mice, 30 mg/kg twice daily, vehicle 2.0 ± 0.1",2.0 ± 0.2
same,Steatosis ± SE,"NASH model mice; ♂ Mice, 30 mg/kg twice daily, vehicle 2.7 ± 0.1",2.4 ± 0.1
same,Lobular Inflammation ± SE,"NASH model mice; ♂ Mice, 30 mg/kg twice daily, vehicle 2.8 ± 0.1",2.6 ± 0.2
same,Fibrosis Stage ± SE,"NASH model mice; ♂ Mice, 30 mg/kg twice daily, vehicle 3.3 ± 0.1",3.0 ± 0.0
same,NAFLD activity score (NAS) ± SE,"NASH model mice; ♂ Mice, 30 mg/kg twice daily, vehicle 7.2 ± 0.3",6.8 ± 0.5
same,Steatohepatitis Grade ± SE,"NASH model mice; ♂ Mice, 30 mg/kg twice daily, vehicle 2.6 ± 0.2",2.5 ± 0.2
same,liver cells viability (H&E),human liver slices,did not change
same,cell cytotoxicity (MTS),phHSCs [1],no significant cell cytotoxicity
same,cell cytotoxicity (MTS),LX-2 cells [2],no significant cell cytotoxicity observed except for in LX-2 cells at 300 nM
same,apoptotic effect (caspase-3/7 activity),phHSCs [3],no apoptotic effect
same,apoptotic effect (caspase-3/7 activity),LX-2 cells [4],no apoptotic effect
